T/C data for 11 molecules are collected here from PubChem BioAssay AID328 (DTP/NCI, 2004).

The assay relates to BDF1 mice, P388 leukemia ip, median survival T/C. As to the kind of experiment: NCI In Vivo Anticancer Drug Screen. Data for tumor model P388 Leukemia (intraperitoneal) in B6D2F1 (BDF1) mice. To be noted: endpoint: median survival time, higher = longer survival. The method, boiled down: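 Read-out is survival of treated animals expressed relative to the vehicle group, as a T/C ratio.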

[1] abbreviates: dose: 50.0 mg/kg/injection, schedule: Q01DX009 (ip), vehicle: saline with Tween-80.
Setting [2] is: dose: 100.0 mg/kg/injection, schedule: Q01DX009 (ip), vehicle: saline with Tween-80.
[3] abbreviates: dose: 100.0 mg/kg/injection, schedule: Q04DX003 (ip), vehicle: saline with Tween-80.
Setting [4] is: dose: 200.0 mg/kg/injection, schedule: Q04DX003 (ip), vehicle: saline with Tween-80.
Where [5] appears, read: dose: 100.0 mg/kg/injection, schedule: Q04DX003 (ip), vehicle: saline.
[6] abbreviates: dose: 200.0 mg/kg/injection, schedule: Q04DX003 (ip), vehicle: saline.

Several values for one entry are separate records, joined by “and”; a condition that tells them apart may be missing. Equal entries are not always repeated. Inconclusive results and toxic doses are left out.

Regarding `CCCCCCCCCCCCCCCCCSCCCCCSCCCCCCCCCCCCCCCCC`, the T/C is 90 % of control (dose: 100.0 mg/kg/injection, schedule: Q01DX001 (ip), vehicle: saline with Tween-80) and 86 % of control (dose: 400.0 mg/kg/injection, schedule: Q01DX001 (ip), vehicle: saline with Tween-80).
Turning to `O=C(Nc1cccc2c(OC(=O)C(Cl)Cl)c(N=Nc3ccc(S(=O)(=O)Nc4nccs4)cc3)cc(N=Nc3ccc(S(=O)(=O)Nc4nccs4)cc3)c12)C(Cl)Cl` (tested in a mixture with another compound), the T/C was 103 % of control (dose: 50.0 mg/kg/injection, schedule: Q01DX005 (ip), vehicle: saline with Tween-80); 110 % of control under setting [1]; 103 % of control (dose: 100.0 mg/kg/injection, schedule: Q01DX005 (ip), vehicle: saline with Tween-80); 124 % of control under setting [2].
Regarding `CCCCCCCCCCCCCCCC(=O)OCC1OC(n2ccc(N)nc2=O)C(O)C1O` (stereo unspecified), the T/C was 111 % of control (dose: 0.38 mg/kg/injection, schedule: Q04DX003 (ip), vehicle: saline with Tween-80); 109 % of control (dose: 0.88 mg/kg/injection, schedule: Q04DX003 (ip), vehicle: saline with Tween-80); 152 % of control (dose: 1.5 mg/kg/injection, schedule: Q04DX003 (ip), vehicle: saline with Tween-80); 154 % of control (dose: 2.0 mg/kg/injection, schedule: Q04DX003 (ip), vehicle: saline with Tween-80); 181 % of control and 189 % of control (dose: 3.0 mg/kg/injection, schedule: Q04DX003 (ip), vehicle: saline with Tween-80); 272 % of control and 215 % of control (dose: 3.13 mg/kg/injection, schedule: Q01DX009 (ip), vehicle: saline with Tween-80). Also, the T/C is 250 % of control and 322 % of control (dose: 6.25 mg/kg/injection, schedule: Q01DX009 (ip), vehicle: saline with Tween-80); 186 % of control (dose: 7.5 mg/kg/injection, schedule: Q01DX009 (ip), vehicle: saline with Tween-80); 300 % of control and 333 % of control (dose: 12.5 mg/kg/injection, schedule: Q01DX009 (ip), vehicle: saline with Tween-80); 190 % of control (dose: 15.0 mg/kg/injection, schedule: Q01DX009 (ip), vehicle: saline with Tween-80); 272 % of control (dose: 22.0 mg/kg/injection, schedule: Q01DX009 (ip), vehicle: saline with Tween-80); 266 % of control and 300 % of control (dose: 25.0 mg/kg/injection, schedule: Q01DX009 (ip), vehicle: saline with Tween-80). Besides, the T/C was 109 % of control (dose: 25.0 mg/kg/injection, schedule: Q04DX003 (ip), vehicle: saline with Tween-80); 104 % of control (dose: 30.0 mg/kg/injection, schedule: Q01DX009 (ip), vehicle: saline with Tween-80); 214 % of control (dose: 30.25 mg/kg/injection, schedule: Q01DX001 (ip), vehicle: Klucel (hydroxypropylcellulose) (HPC)); 265 % of control and 204 % of control (dose: 31.75 mg/kg/injection, schedule: Q04DX002 (ip), vehicle: Klucel (hydroxypropylcellulose) (HPC)); 171 % of control (dose: 40.0 mg/kg/injection, schedule: Q01DX001 (ip), vehicle: saline with Tween-80); 275 % of control (dose: 44.0 mg/kg/injection, schedule: Q04DX003 (ip), vehicle: saline sonified). Moreover, the T/C runs as follows: under setting [1], 90 % of control; (dose: 50.0 mg/kg/injection, schedule: Q04DX003 (ip), vehicle: saline with Tween-80) 195 % of control; (dose: 60.0 mg/kg/injection, schedule: Q01DX001 (ip), vehicle: saline with Tween-80) 188 % of control; (dose: 62.5 mg/kg/injection, schedule: Q04DX002 (ip), vehicle: Klucel (hydroxypropylcellulose) (HPC)) 241 % of control and 265 % of control; (dose: 66.0 mg/kg/injection, schedule: Q04DX003 (ip), vehicle: saline sonified) 300 % of control; (dose: 90.0 mg/kg/injection, schedule: Q01DX001 (ip), vehicle: saline with Tween-80) 197 % of control. Also, the T/C (dose: 90.0 mg/kg/injection, schedule: Q04DX003 (ip), vehicle: saline with Tween-80) is 231 % of control (2×) and 217 % of control; the T/C (dose: 100.0 mg/kg/injection, schedule: Q01DX001 (ip), vehicle: saline) is 206 % of control; the T/C (dose: 100.0 mg/kg/injection, schedule: Q04DX003 (ip), vehicle: saline sonified) was 300 % of control; the T/C under setting [3] was 300 % of control and 168 % of control; the T/C (dose: 125.0 mg/kg/injection, schedule: Q01DX001 (ip), vehicle: saline with Tween-80) is 392 % of control; the T/C (dose: 125.0 mg/kg/injection, schedule: Q04DX002 (ip), vehicle: Klucel (hydroxypropylcellulose) (HPC)) is 265 % of control. In addition, the T/C (dose: 150.0 mg/kg/injection, schedule: Q01DX001 (ip), vehicle: saline) is 318 % of control; the T/C (dose: 150.0 mg/kg/injection, schedule: Q04DX003 (ip), vehicle: saline sonified) is 120 % of control; the T/C (dose: 200.0 mg/kg/injection, schedule: Q01DX001 (ip), vehicle: saline with Tween-80) is 239 % of control and 196 % of control and 214 % of control; the T/C under setting [4] is 95 % of control and 120 % of control.
With `COc1ccc(C[C@H](N)C(=O)NC2C(CO)OC(n3cnc4c(N(C)C)ncnc43)C2O)cc1` (stereo partly specified), the T/C is, setting by setting: (dose: 25.0 mg/kg/injection, schedule: Q04DX003 (ip), vehicle: saline) 98 % of control; (dose: 50.0 mg/kg/injection, schedule: Q04DX003 (ip), vehicle: saline) 109 % of control; (dose: 100.0 mg/kg/injection, schedule: Q01DX009 (ip), vehicle: saline) 100 % of control; under setting [5], 105 % of control.
Regarding `COc1cc2c(c(OC)c1OC)CCC1(C)C(=O)NN=C21` (stereo unspecified), the T/C runs as follows: (dose: 100.0 mg/kg/injection, schedule: Q01DX009 (ip), vehicle: Klucel (hydroxypropylcellulose) (HPC)) 108 % of control; (dose: 200.0 mg/kg/injection, schedule: Q01DX009 (ip), vehicle: Klucel (hydroxypropylcellulose) (HPC)) 106 % of control.
With `CCCNc1ncnc2c1cnn2C`, the T/C is, setting by setting: (dose: 12.5 mg/kg/injection, schedule: Q01DX009 (ip), vehicle: saline) 88 % of control; (dose: 25.0 mg/kg/injection, schedule: Q01DX009 (ip), vehicle: saline) 112 % of control; (dose: 50.0 mg/kg/injection, schedule: Q01DX009 (ip), vehicle: saline) 108 % of control; under setting [5], 120 % of control; under setting [6], 120 % of control.
Consider `Cn1c([N+](=O)[O-])cnc1CSc1nc(-c2ccccc2)no1`, for which the T/C under setting [3] is 93 % of control; the T/C under setting [4] is 117 % of control; the T/C (dose: 400.0 mg/kg/injection, schedule: Q04DX003 (ip), vehicle: saline with Tween-80) is 93 % of control.
On to `O=[N+]([O-])C(CO)(CO)CO`, for which the T/C reads like this: under setting [5], 95 % of control; under setting [6], 100 % of control; (dose: 400.0 mg/kg/injection, schedule: Q04DX003 (ip), vehicle: saline) 100 % of control.
On to `CCOC(=S)Nc1ccc(F)cc1`, for which the T/C is 94 % of control (dose: 33.7 mg/kg/injection, schedule: Q01DX009 (ip), vehicle: saline with Tween-80); 103 % of control (dose: 67.5 mg/kg/injection, schedule: Q01DX009 (ip), vehicle: saline with Tween-80); 102 % of control (dose: 135.0 mg/kg/injection, schedule: Q01DX009 (ip), vehicle: saline with Tween-80).
Regarding `COc1ccccc1N1C(=O)CC(Sc2ccccc2N)C1=O` (stereo unspecified), the T/C is, setting by setting: under setting [2], 91 % of control; (dose: 132.0 mg/kg/injection, schedule: Q01DX009 (ip), vehicle: saline with Tween-80) 95 % of control; (dose: 200.0 mg/kg/injection, schedule: Q01DX009 (ip), vehicle: saline with Tween-80) 105 % of control; (dose: 300.0 mg/kg/injection, schedule: Q01DX009 (ip), vehicle: saline with Tween-80) 105 % of control; (dose: 400.0 mg/kg/injection, schedule: Q01DX009 (ip), vehicle: saline with Tween-80) 91 % of control.
For `O=[N+]([O-])c1ccccc1C(c1ccc2ccccc2c1O)N1CCOCC1` (stereo unspecified), the T/C is 100 % of control (dose: 33.0 mg/kg/injection, schedule: Q01DX001 (ip), vehicle: saline with Tween-80); 163 % of control (dose: 50.0 mg/kg/injection, schedule: Q01DX001 (ip), vehicle: saline sonified); 100 % of control (dose: 50.0 mg/kg/injection, schedule: Q01DX001 (ip), vehicle: saline with Tween-80); 100 % of control (dose: 75.0 mg/kg/injection, schedule: Q01DX001 (ip), vehicle: saline with Tween-80); 109 % of control (dose: 100.0 mg/kg/injection, schedule: Q01DX001 (ip), vehicle: saline sonified); 95 % of control (dose: 200.0 mg/kg/injection, schedule: Q01DX001 (ip), vehicle: saline sonified).
